Data set [1] deals with Klebsiella Aerogenes E 70. Put plainly: Antibacterial synergism, microtitre method (Example 42). Conditions: Table 8, strain E 70. The format is cell-based.
Another data set concerns Klebsiella aerogenes A. The description is as above. The format is cell-based. The conditions noted are these: Table 8, strain A.
Another data set concerns Enterobacter cloacae. The description is as above. It counts as cell-based. The conditions noted are these: Table 5, inoculum 0.5 × 10^-2, read-out: Minimum Inhibitory Concentration, compound alone.
The subject of another data set is Escherichia coli B 11. The description is as above. The conditions noted are these: B11, Table 5, inoculum 0.5 × 10^-2, read-out: Minimum Inhibitory Concentration, compound alone. It counts as cell-based.
A further data set has as its system Proteus mirabilis C889. Nature of the data set: Synergism of clavulanic acid methyl ester, M.I.C. (Example 32). It counts as cell-based.
Another data set deals with Klebsiella Aerogenes 62. Put plainly: Antibacterial synergism, microtitre method (Example 42). The format is cell-based. Conditions: Table 8, strain 62.
Data set [2] concerns Staphylococcus aureus (Russell). Put plainly: Synergism of clavulanic acid methyl ester, M.I.C. (Example 32). The format is cell-based.
For data set [3] the test system is unchanged. Put plainly: Antibacterial synergism, microtitre method (Example 42). The format is cell-based.
Data set [4] is described as follows: Hydrolysis of the methyl ester to clavulanic acid in pH 7 buffer. The format is physicochemical. An excerpt: Many esters of clavulanic acid differ from analagous esters of penicillins or cephalosporins in that they show an enhanced tendency to hydrolyze to clavulanic acid under mild conditions. […] Esters which undergo some hydrolysis under mild conditions are included within the formula (IX): [drawing 8] wherein R^1 is a hydrocarbon group of 1- 9 carbon atoms optionally substituted by halogen, lower alkoxy, hydroxyl or optionally salted basic groups of the formula NR^2 R^3 wherein R^2 is a hydrogen atom or a lower alkyl group, R^3 is a hydrogen atom or a lower alkyl group or is attached to R^2 so that NR^2 R^3 is a 5- or 6- membered ring.
The reaction was followed by paper chromatography (bioautographic system). Using the butanol/ethanol/water system to follow the reaction over a period of 2 hours the zone of the methyl ester at Rf 0.79 decreased in size as the zone of clavulanic acid at Rf 0.12 increased.

The test system of another data set is Staphylococcus aureus. Put plainly: Antibacterial synergism, microtitre method (Example 42). Conditions: Table 6. The format is cell-based.
Data set [5] deals with T1, β-lactamase of E. coli JT410 (Escherichia coli, UniProt P00811).
T1 construct: E. coli JT410; endogenous in cells; host or cells: Escherichia coli JT410
Put plainly: standard enzyme inhibitory assay (Example 49). It counts as biochemical. The conditions noted are these: read-out: I50 (converted).

Where a name gives a salt, the structure may show the parent alone. Bounds are passed on as bounds.

Results on 5 molecules are retold here after US4140764A, “β-Lactamase inhibitors and process for their preparation” (priority 1975, dated 1979).

T1 sequence (P00811 20-377): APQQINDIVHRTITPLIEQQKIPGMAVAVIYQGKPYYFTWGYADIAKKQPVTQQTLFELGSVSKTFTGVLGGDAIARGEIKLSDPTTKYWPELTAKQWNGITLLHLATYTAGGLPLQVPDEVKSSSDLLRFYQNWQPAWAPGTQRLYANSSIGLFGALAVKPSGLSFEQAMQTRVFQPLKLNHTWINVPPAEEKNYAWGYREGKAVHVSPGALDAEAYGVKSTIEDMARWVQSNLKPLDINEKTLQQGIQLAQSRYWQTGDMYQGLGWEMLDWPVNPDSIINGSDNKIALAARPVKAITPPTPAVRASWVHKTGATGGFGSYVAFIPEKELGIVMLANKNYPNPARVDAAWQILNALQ

Turning to `CC1(C)S[C@@H]2[C@H](NC(=O)[C@H](N)c3ccccc3)C(=O)N2[C@H]1C(=O)O` [ampicillin], the “MIC of Ampicillin + 5 μg/ml of Benzyl Ester of clavulanic acid” value came to 3.9 µg/mL in data set [1], 1.9 µg/mL with Klebsiella aerogenes A and 3.9 µg/mL in the data set on Klebsiella Aerogenes 62. Further, the “MIC of Ampicillin + 5 μg/ml of Methyl Ester of clavulanic acid” value in data set [1] was found to be 3.9 µg/mL; in the data set with Klebsiella aerogenes A it was 1.9 µg/mL; in the data set with Klebsiella Aerogenes 62, 3.9 µg/mL. Further, the MIC is 250 µg/mL in the data set on Enterobacter cloacae and more than 500 µg/mL in the data set with Escherichia coli B 11. For the same molecule, the “M.I.C. of ampicillin in the presence of 5 μg/ml. clavulanic acid methyl ester” value in the data set with Proteus mirabilis C889 worked out at 31 µg/mL. Moreover, the “M.I.C. of antibiotic in the presence of 1.0 μg/ml. clavulanic acid methyl ester” value in data set [2] is less than 0.4 µg/mL.

Regarding `O=C(Cc1cccs1)N[C@@H]1C(=O)N2C(C(=O)[O-])=C(C[n+]3ccccc3)CS[C@H]12` [cephaloridine], in data set [3], the “Minimum Inhibitory Concentration of cephaloridine with synergist added at 1 μg/ml instead of 5 μg/ml” value is “Same value”.

Regarding `COC(=O)[C@H]1/C(=C/CO)O[C@@H]2CC(=O)N21` [clavulanic acid methyl ester], the “conversion of the ester to clavulanic acid” value in data set [4] (1 mg/ml, 37° C., 0.05M phosphate buffer pH 7, followed over 2 hours) is “Slow conversion”. Further, the “hydrolysis to clavulanic acid” value in [4] (water buffered to pH7) is reported as “slowly hydrolyze”.

As to `O=C(O)[C@H]1/C(=C/CO)O[C@@H]2CC(=O)N21` [clavulanic acid sodium salt, 3-(β-hydroxyethylidine)-7-oxo-4-oxa-1-azabicyclo [3,2,0]heptane-2-carboxylic acid sodium salt], the results for the “Minimum Inhibitory Concentration, compound alone” value (in the data set with Staphylococcus aureus; in data set [3] (Table 6)) were 62 µg/mL and 15 µg/mL, respectively.

For the molecule `O=C(COc1ccccc1)OC/C=C1\O[C@@H]2CC(=O)N2[C@H]1C(=O)OCc1ccccc1` [benzyl phenoxyacetylclavulanate, Benzyl Phenoxyacetylclavulanate], the IC50 in data set [5] is 3.54 µM.
